Patent EP4603105A1, “PHARMACEUTICAL COMPOSITION CONTAINING CYCLIC COMPOUND HAVING SELECTIVE KRAS INHIBITORY EFFECT AGAINST HRAS AND NRAS” (CHUGAI SEIYAKU KABUSHIKI KAISHA, priority 2022, dated 2024)

What was measured:
[1] = tested on: human lung cancer strain NCI-H441; assay type: cell-based
How it was run: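 Proliferation was scored by […] measured after the reagent was added to cultures kept at 37°C in 5% carbon dioxide.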

[2] = target: GDP-bound NRAS wild-type protein (Homo sapiens, UniProt P01111); test: Binding to NRAS by surface plasmon resonance (SPR), KD and KD ratio to KRAS; conditions: ratio of KD for GDP-bound NRAS wild-type protein to KD for KRAS
How it was run: (§1)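 SPR, 30°C: Avi-biotin RAS·GDP captured via Biotin CAPture (~100–300 RU); running buffer HBS pH 7.4, 1 mM DTT, 10 mM MgCl2, 0.01% Tween 20, 10 µM GDP, 4% DMSO. Single-cycle kinetics, 100 µL/min, 75 s injections; 1:1 model → KD.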

[3] = target: HRAS wild-type protein (Homo sapiens, UniProt P01112); test: Binding to HRAS by surface plasmon resonance (SPR), KD and KD ratio to KRAS; conditions: ratio of KD for HRAS wild-type protein to KD for KRAS
How it was run: as §1

Chain of HRAS wild-type protein (P01112 whole entry): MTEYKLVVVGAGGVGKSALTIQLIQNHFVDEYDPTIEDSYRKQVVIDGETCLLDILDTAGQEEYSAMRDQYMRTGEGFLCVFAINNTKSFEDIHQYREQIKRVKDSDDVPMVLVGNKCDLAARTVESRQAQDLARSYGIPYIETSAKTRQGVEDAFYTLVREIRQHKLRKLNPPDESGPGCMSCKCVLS
Chain of GDP-bound NRAS wild-type protein (P01111 whole entry): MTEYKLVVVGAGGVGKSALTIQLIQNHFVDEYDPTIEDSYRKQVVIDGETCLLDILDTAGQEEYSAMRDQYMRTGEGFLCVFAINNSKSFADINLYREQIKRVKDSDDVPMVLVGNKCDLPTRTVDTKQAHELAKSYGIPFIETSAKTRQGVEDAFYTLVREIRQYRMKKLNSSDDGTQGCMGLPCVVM

Structure (SMILES): CCC[C@H]1C(=O)N[C@@H]([C@@H](C)CC)C(=O)N(C)CC(=O)N(C)[C@H]2C/C=C\CCN(C2=O)[C@@H](Cc2ccc(C(F)(F)F)cc2)C(=O)N(C)CC(=O)N[C@@H](CCc2ccc(C(F)(F)F)c(Cl)c2)C(=O)N2CC3(CC3)C[C@H]2C(=O)NC2(CC(C)(C)C2)C(=O)N(C)[C@@H](CC(C)(C)C)C(=O)N(C)[C@H](C(=O)N(C)C)CC(=O)N1C [PP2979]
- IC50 [1]: 5 nM
- NRAS /KRAS [2]: A (a compound having 10 or more and less than 20 is denoted as A)
- HRAS /KRAS [3]: B (a compound having 3 or more and less than 10 is denoted as B)

Structure (SMILES): C#CC[C@H]1C(=O)N[C@@H]([C@@H](C)CC)C(=O)N(C)CC(=O)N(C)[C@H]2C/C=C\CCN(C2=O)[C@@H](Cc2ccc(C(F)(F)F)cc2)C(=O)N(C)CC(=O)N[C@@H](CCc2ccc(C(F)(F)F)c(Cl)c2)C(=O)N2CC3(CC3)C[C@H]2C(=O)NC2(CC(C)(C)C2)C(=O)N(C)[C@@H](C2CCCC2)C(=O)N(C)[C@H](C(=O)N(C)C)CC(=O)N1C [PP2980]
- IC50 [1]: 11.7 nM
- NRAS /KRAS [2]: A (a compound having 10 or more and less than 20 is denoted as A)
- HRAS /KRAS [3]: B (a compound having 3 or more and less than 10 is denoted as B)

Structure (SMILES): CCC[C@H]1C(=O)N[C@@H](C2CCCC2)C(=O)N(C)CC(=O)N(C)[C@H]2C/C=C\CCN(C2=O)[C@@H](Cc2ccc(C(F)(F)F)cc2)C(=O)N(C)CC(=O)N[C@@H](CCc2ccc(C(F)(F)F)c(Cl)c2)C(=O)N2CC3(CC3)C[C@H]2C(=O)NC2(CC(C)(C)C2)C(=O)N(C)[C@@H](CC(C)(C)C)C(=O)N(C)[C@H](C(=O)N(C)C)CC(=O)N1C [PP2981]
- IC50 [1]: 20.3 nM
- NRAS /KRAS [2]: AA (a compound having 20 or more is denoted as AA)
- HRAS /KRAS [3]: A (a compound having 10 or more and less than 20 is denoted as A)

Structure (SMILES): C#CC[C@H]1C(=O)N[C@@H]([C@@H](C)CC)C(=O)N(C)CC(=O)N(C)[C@H]2C/C=C\CCN(C2=O)[C@@H](Cc2ccc(C)cc2)C(=O)N(C)CC(=O)N[C@@H](CCc2ccc(C(F)(F)F)c(Cl)c2)C(=O)N2CC3(CC3)C[C@H]2C(=O)NC2(CC(C)(C)C2)C(=O)N(C)[C@@H](C2CCCC2)C(=O)N(C)[C@H](C(=O)N(C)C)CC(=O)N1C [PP2982]
- IC50 [1]: 11.9 nM
- NRAS /KRAS [2]: A (a compound having 10 or more and less than 20 is denoted as A)
- HRAS /KRAS [3]: A (a compound having 10 or more and less than 20 is denoted as A)

Structure (SMILES): CCC[C@H]1C(=O)N[C@@H]([C@@H](C)CC)C(=O)N(C)CC(=O)N(C)[C@H]2C/C=C\CCN(C2=O)[C@@H](Cc2ccc(C(F)(F)F)cc2)C(=O)N(C)CC(=O)N[C@@H](CCc2ccc(C(F)(F)F)c(Cl)c2)C(=O)N2CC3(CC3)C[C@H]2C(=O)NC2(CC(C)(C)C2)C(=O)N(C)[C@@H]([C@@H](C)CC)C(=O)N(C)[C@H](C(=O)N(C)C)CC(=O)N1C [PP2983]
- IC50 [1]: 18.7 nM
- NRAS /KRAS [2]: AA (a compound having 20 or more is denoted as AA)
- HRAS /KRAS [3]: A (a compound having 10 or more and less than 20 is denoted as A)

Structure (SMILES): CCC[C@H]1C(=O)N[C@@H](C2CCCC2)C(=O)N(C)CC(=O)N(C)[C@H]2C/C=C\CCN(C2=O)[C@@H](Cc2ccc(C(F)(F)F)cc2)C(=O)N(C)CC(=O)N[C@@H](CCc2ccc(C(F)(F)F)c(Cl)c2)C(=O)N2C[C@H](OCC)C[C@H]2C(=O)NC2(CC(C)(C)C2)C(=O)N(C)[C@@H](C2CCCC2)C(=O)N(C)[C@H](C(=O)N(C)C)CC(=O)N1C [PP2984]
- IC50 [1]: 9.6 nM
- NRAS /KRAS [2]: A (a compound having 10 or more and less than 20 is denoted as A)
- HRAS /KRAS [3]: B (a compound having 3 or more and less than 10 is denoted as B)

Structure (SMILES): CCC[C@H]1C(=O)N[C@@H](C2CCCC2)C(=O)N(C)CC(=O)N(C)[C@H]2C/C=C\CCN(C2=O)[C@@H](Cc2ccc(C(F)(F)F)cc2)C(=O)N(C)CC(=O)N[C@@H](CCc2ccc(C(F)(F)F)c(Cl)c2)C(=O)N2CC3(CC3)C[C@H]2C(=O)NC2(CC(C)(C)C2)C(=O)N(C)[C@@H](C2CCCC2)C(=O)N(C)[C@H](C(=O)N(C)C)CC(=O)N1C [PP2986]
- IC50 [1]: 25.1 nM
- NRAS /KRAS [2]: AA (a compound having 20 or more is denoted as AA)
- HRAS /KRAS [3]: A (a compound having 10 or more and less than 20 is denoted as A)

Structure (SMILES): CCC[C@H]1C(=O)N[C@@H]([C@@H](C)CC)C(=O)N(C)CC(=O)N(C)[C@H]2C/C=C\CCN(C2=O)[C@@H](Cc2ccc(C(F)(F)F)cc2)C(=O)N(C)CC(=O)N[C@@H](CCc2ccc(C(F)(F)F)c(Cl)c2)C(=O)N2CC3(CC3)C[C@H]2C(=O)NC2(CC(C)(C)C2)C(=O)N(C)[C@@H](CC(C)C)C(=O)N(C)[C@H](C(=O)N(C)C)CC(=O)N1C [PP2987]
- IC50 [1]: 31.7 nM
- NRAS /KRAS [2]: AA (a compound having 20 or more is denoted as AA)
- HRAS /KRAS [3]: A (a compound having 10 or more and less than 20 is denoted as A)

Structure (SMILES): CCC[C@H]1C(=O)N[C@@H](C2CCCC2)C(=O)N(C)CC(=O)N(C)[C@H]2C/C=C\CCN(C2=O)[C@@H](Cc2ccc(C)cc2)C(=O)N(C)CC(=O)N[C@@H](CCc2cc(F)c(C(F)(F)F)c(F)c2)C(=O)N2C[C@H](OCC)C[C@H]2C(=O)NC2(CC(C)(C)C2)C(=O)N(C)[C@@H](CC(C)(C)C)C(=O)N(C)[C@H](C(=O)N(C)C)CC(=O)N1C [PP2989]
- IC50 [1]: 6.5 nM
- NRAS /KRAS [2]: AA (a compound having 20 or more is denoted as AA)
- HRAS /KRAS [3]: A (a compound having 10 or more and less than 20 is denoted as A)

Structure (SMILES): CCC[C@H]1C(=O)N[C@@H](C2CCCC2)C(=O)N(C)CC(=O)N(C)[C@H]2C/C=C\CCN(C2=O)[C@@H](Cc2ccc(C)cc2)C(=O)N(C)CC(=O)N[C@@H](CCc2cc(F)c(C(F)(F)F)c(F)c2)C(=O)N2CC3(CC3)C[C@H]2C(=O)NC2(CC(C)(C)C2)C(=O)N(C)[C@@H](C2CCCC2)C(=O)N(C)[C@H](C(=O)N(C)C)CC(=O)N1C [PP2990]
- IC50 [1]: 8.9 nM
- NRAS /KRAS [2]: A (a compound having 10 or more and less than 20 is denoted as A)
- HRAS /KRAS [3]: A (a compound having 10 or more and less than 20 is denoted as A)

Structure (SMILES): CCC[C@H]1C(=O)N[C@@H](C2CCCC2)C(=O)N(C)CC(=O)N(C)[C@H]2C/C=C\CCN(C2=O)[C@@H](Cc2ccc(C)cc2)C(=O)N(C)CC(=O)N[C@@H](CCc2ccc(C(F)(F)F)c(OC)c2)C(=O)N2C[C@H](OCC)C[C@H]2C(=O)NC2(CC(C)(C)C2)C(=O)N(C)[C@@H](C2CCCC2)C(=O)N(C)[C@H](C(=O)N(C)C)CC(=O)N1C [PP2992]
- IC50 [1]: 7.5 nM
- NRAS /KRAS [2]: AA (a compound having 20 or more is denoted as AA)
- HRAS /KRAS [3]: A (a compound having 10 or more and less than 20 is denoted as A)

Structure (SMILES): CCC[C@H]1C(=O)N[C@@H]([C@@H](C)CC)C(=O)N(C)CC(=O)N(C)[C@H]2C/C=C\CCN(C2=O)[C@@H](Cc2ccc(C)cc2)C(=O)N(C)CC(=O)N[C@@H](CCc2cc(F)c(C(F)(F)F)c(F)c2)C(=O)N2C[C@H](OCC)C[C@H]2C(=O)NC2(CC(C)(C)C2)C(=O)N(C)[C@@H](CC(F)(F)F)C(=O)N(C)[C@H](C(=O)N(C)C)CC(=O)N1C [PP2993]
- IC50 [1]: 14.1 nM
- NRAS /KRAS [2]: A (a compound having 10 or more and less than 20 is denoted as A)
- HRAS /KRAS [3]: A (a compound having 10 or more and less than 20 is denoted as A)

Structure (SMILES): CCC[C@H]1C(=O)N[C@@H](C2CCCCC2)C(=O)N(C)CC(=O)N(C)[C@H]2C/C=C\CCN(C2=O)[C@@H](Cc2ccc(C(F)(F)F)cc2)C(=O)N(C)CC(=O)N[C@@H](CCc2ccc(C(F)(F)F)c(Cl)c2)C(=O)N2C[C@H](OCC)C[C@H]2C(=O)NC2(CC(C)(C)C2)C(=O)N(C)[C@@H](C2CCCC2)C(=O)N(C)[C@H](C(=O)N(C)C)CC(=O)N1C [PP2996]
- IC50 [1]: 13.7 nM
- NRAS /KRAS [2]: AA (a compound having 20 or more is denoted as AA)
- HRAS /KRAS [3]: A (a compound having 10 or more and less than 20 is denoted as A)

Structure (SMILES): CCC[C@H]1C(=O)N[C@@H]([C@@H](C)CC)C(=O)N(C)CC(=O)N(C)[C@H]2C/C=C\CCN(C2=O)[C@@H](Cc2ccc(C)cc2)C(=O)N(C)CC(=O)N[C@@H](CCc2cc(F)c(C(F)(F)F)c(F)c2)C(=O)N2CC3(CC3)C[C@H]2C(=O)NC2(CC(C)(C)C2)C(=O)N(C)[C@@H](CC(C)(C)C)C(=O)N(C)[C@H](C(=O)N(C)C)CC(=O)N1C [PP2997]
- IC50 [1]: 4.1 nM
- NRAS /KRAS [2]: A (a compound having 10 or more and less than 20 is denoted as A)
- HRAS /KRAS [3]: B (a compound having 3 or more and less than 10 is denoted as B)

Structure (SMILES): CCC[C@H]1C(=O)N[C@@H](C2CCCC2)C(=O)N(C)CC(=O)N(C)[C@H]2C/C=C\CCN(C2=O)[C@@H](Cc2ccc(C)cc2)C(=O)N(C)CC(=O)N[C@@H](CCc2cc(F)c(C(F)(F)F)c(F)c2)C(=O)N2CC3(CC3)C[C@H]2C(=O)NC2(CC(C)(C)C2)C(=O)N(C)[C@@H](CC(C)(C)C)C(=O)N(C)[C@H](C(=O)N(C)C)CC(=O)N1C [PP2999]
- IC50 [1]: 11.4 nM
- NRAS /KRAS [2]: AA (a compound having 20 or more is denoted as AA)
- HRAS /KRAS [3]: A (a compound having 10 or more and less than 20 is denoted as A)

Structure (SMILES): CCC[C@H]1C(=O)N[C@@H](C2CCOCC2)C(=O)N(C)CC(=O)N(C)[C@H]2C/C=C\CCN(C2=O)[C@@H](Cc2ccc(C(F)(F)F)cc2)C(=O)N(C)CC(=O)N[C@@H](CCc2ccc(C(F)(F)F)c(Cl)c2)C(=O)N2C[C@H](OCC)C[C@H]2C(=O)NC2(CC(C)(C)C2)C(=O)N(C)[C@@H](C2CCCC2)C(=O)N(C)[C@H](C(=O)N(C)C)CC(=O)N1C [PP3000]
- IC50 [1]: 63 nM
- NRAS /KRAS [2]: AA (a compound having 20 or more is denoted as AA)
- HRAS /KRAS [3]: A (a compound having 10 or more and less than 20 is denoted as A)
